Results published in patent US20200071310A1, “N-ARYL PYRAZOLES AS NRF2 REGULATORS” (GLAXOSMITHKLINE INTELLECTUAL PROPERTY DEVELOPMENT LIMITED, priority 2016, published 2020).
Where two headings read alike, the source gives them in different places.

Assays:
[1] = tested on: NQO1 specific enzyme activity in BEAS-2B cells; assay: BEAS-2B NQO1 MTT Assay; assay type: cell-based; conditions: Homo sapiens
Excerpt: NAD(P)H:quinone oxidoreductase 1 (NQO1), also called DT diaphorase, is a homodimeric FAD-containing enzyme that catalyzes obligatory NAD(P)H-dependent two-electron reductions of quinones and protects cells against the toxic and neoplastic effects of free radicals and reactive oxygen species arising from one-electron reductions. The transcription of NQO1 is finely regulated by NRF2, and thus NQO1 activity is a good marker for NRF2 activation. On day one, frozen BEAS-2B cells (ATCC) were thawed in a water bath, counted, and re-suspended at a concentration of 250,000 cells/mL. Fifty microliters of cells were plated in 384 well black clear-bottomed plates. Plates were incubated at 37° C., 5% CO2 overnight. On day two, plates were centrifuged and 50 nL of compound or controls were added to the cells. Plates were then incubated at 37° C., 5% CO2 for 48 hours. On day four, medium was aspirated from the plate and crude cell lysates were made by adding 13 uL of 1× Cell Signaling Technologies lysis buffer with 1 Complete, Mini, EDTA-free Protease Inhibitor Tablet (Roche) for each 10 mL of lysis buffer. After lysis plates were incubated for 20 minutes at room temperature. Two microliters of lysate were removed for use in Cell Titer Glo assay (Promega) and MTT cocktail was prepared (Prochaska et. al. 1998) for measurement of NQO1 activity. Fifty microliters of MTT cocktail is added to each well, plate is centrifuged, and analyzed on an Envision plate reader (Perkin Elmer) using Absorbance 570 nm label for 30 minutes. Product formation was measured kinetically and the pEC50 of NQO1 specific activity induction was calculated by plotting the change in absorbance (Delta OD/min) versus the log of compound concentration followed by 3-parameter fitting. pEC50 is the negative log of the EC50.

[2] = biological target: T1, full length Keap1 protein / full length NRF2 protein (Homo sapiens, UniProt Q14145); assay: NRF2-Keap1 TR-FRET Low Protein Assay; assay type: binding
T1 construct: full length NRF2 protein and full length Keap1 protein (Keap1 exists a dimer) are used; His
Excerpt: In the NRF2-Keap1 TR-FRET (time-resolved fluorescence resonance energy transfer) low protein assay, full length NRF2 protein and full length Keap1 protein (Keap1 exists a dimer) are used. The assay detects a compound's ability to displace the binding of Keap1 FlagHis with biotinylated Avi-NRF2 protein. Biotin-NRF2 binds to streptavidin-europium (a component of the detection mix) and Keap1 FlagHis is recognized by anti-Flag APC (allophycocyanin) antibody (also a component of the detection mix). If binding occurs between the two proteins, there will be an energy transfer from the Eu+3 (donor) at 615 nm to the APC (acceptor) at 665 nm. A potential NRF2 inhibitor will cause a reduction in the TR-FRET signal by interfering with the binding of Keap1 to NRF2.
Ten nanoliters of 100× compound dose response curves (serial 3-fold dilutions) in DMSO were stamped using an Echo liquid handling system (Labcyte) into 384-well, low volume, black assay plates (Greiner, #784076), with DMSO in columns 6 and 18. An additional 90 nl DMSO was added to each well, to bring the total volume to 100 nl per well. The top concentration of compound was located in columns 1 and 13, with the serial dilutions going across the row. All reagents were diluted in assay buffer (50 mM Tris, pH 8.0, 5 mM MgCl2, 100 mM NaCl, 0.005% BSA, 1 mM DTT, and 2 mM CHAPS. The BSA, DTT, and CHAPS were added to the assay buffer on the day of assay. Using a Multidrop Combi (Thermo Electron Corporation) equipped with a metal tip dispenser, 5 ul of 1.25 nM Keap1 FlagHis protein was added to all wells of the compound plate, with the exception of the wells in column 18. Wells in column 18 received 5 ul of assay buffer instead. Plates were centrifuged at 500 rpm for 1 minute, covered with a plate lid, and incubated at 37° C. for 2.25 hours. Plates were then removed from the incubator and allowed to cool to RT for 15 minutes. Five microliters of 2.5 nM biotin-NRF2 protein was then added to all wells of the plates and the plates were spun at 500 rpm for 1 minute, followed by incubating at 4° C. for 1.25 hours. The plates were then allowed to warm to RT for 15 minutes, followed by the addition of 10 ul of detection mix (1 nM Streptavidin Eu+W1024 and 5 ug/ml mouse anti-DYKDDDDK IgG conjugated to SureLight APC antibody; both from Columbia Biosciences) to all wells. Plates were spun at 500 rpm for 1 minute, incubated for 1 hour at RT, and read on an Envision plate reader using a 320 nm excitation filter and 615 nm and 665 nm emission filters. Compound response (% inhibition) and potency (pIC50) were calculated based on the ratio of the two emissions (665 nm/615 nm) and then the transformed data was normalized against controls in the assay (control 1=1% DMSO in the presence of NRF2 and Keap1 protein and control 2=1% DMSO in the presence of only the NRF2 protein). Data analysis was handled using the software package Abase XE (Surrey, United Kingdom). The % inhibition values were calculated from the ratio (transformed) data by the equation:
100−(100*(compound response−average control 2)/(average control 1−average control2)).
For calculation of pIC50s, Abase XE used a four parameter equation.
IC50s<10 nM (+++++), IC50s 10-100 nM (++++), IC50s 100 nM-1 uM (+++), IC50s 1-10 uM (++). and IC50s 10 uM-100 uM (+), IC50s>100 uM (−), or were not determined (ND).

[3] = NQO1 specific activity induction, BEAS-2B cells, 48 hours, read-out: EC50

T1 sequence (Q14145 whole entry): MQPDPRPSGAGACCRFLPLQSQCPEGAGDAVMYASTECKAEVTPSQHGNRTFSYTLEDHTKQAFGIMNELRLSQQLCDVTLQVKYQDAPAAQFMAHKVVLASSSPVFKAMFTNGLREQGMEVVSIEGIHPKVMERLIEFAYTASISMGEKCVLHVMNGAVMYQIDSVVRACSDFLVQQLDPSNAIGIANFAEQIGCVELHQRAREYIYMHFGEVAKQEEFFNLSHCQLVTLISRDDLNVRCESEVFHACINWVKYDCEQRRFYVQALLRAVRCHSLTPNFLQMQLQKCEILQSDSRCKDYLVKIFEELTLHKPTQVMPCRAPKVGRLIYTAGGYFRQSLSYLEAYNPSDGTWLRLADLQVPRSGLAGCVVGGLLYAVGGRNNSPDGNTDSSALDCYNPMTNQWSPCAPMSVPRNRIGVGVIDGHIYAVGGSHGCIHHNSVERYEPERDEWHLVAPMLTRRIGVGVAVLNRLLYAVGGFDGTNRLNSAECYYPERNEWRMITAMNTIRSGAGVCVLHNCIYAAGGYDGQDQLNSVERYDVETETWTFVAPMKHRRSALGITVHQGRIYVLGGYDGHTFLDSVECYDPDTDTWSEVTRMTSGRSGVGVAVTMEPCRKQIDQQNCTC

SMILES | EC50 [2] [nM] | EC50 [1, 3] [nM] | EC50 ([1]; BEAS-2B, 48 h) [nM]
Cn1cc([C@@H]2C[C@H]2c2c(C(=O)O)cnn2-c2cccc(CN3CC(C)(C)Oc4ccc(F)cc4S3(=O)=O)c2)nn1 (racemic) [Example 5] | 10 to 100 | 1000 to 10000 | 
Cn1cc([C@@H]2C[C@H]2c2c(C(=O)O)cnn2-c2cccc(CN3Cc4ccccc4CC(C)(C)C3)c2)nn1 (racemic) [Example 7] | 100 to 1000 | 100 to 1000 | 
Cn1cc([C@@H]2C[C@H]2c2c(C(=O)O)cnn2-c2cccc(CN3Cc4ccccc4OC(C)(C)C3)c2)nn1 (racemic) [Example 8] | 100 to 1000 | 1000 to 10000 | 
Cn1cc([C@@H]2C[C@H]2c2c(C(=O)O)cnn2-c2cccc(CN3Cc4ncccc4OC(C)(C)C3)c2)nn1 (racemic) [Example 9] | 100 to 1000 | 100 to 1000 | 
Cn1cc([C@@H]2C[C@H]2c2c(C(=O)O)cnn2-c2cccc(CN3Cc4cc(Br)ccc4OC(C)(C)C3)c2)nn1 (racemic) [Example 13] | 10 to 100 | 100 to 1000 | 
CC[C@@H]1CN(Cc2cccc(-n3ncc(C(=O)O)c3[C@@H]3C[C@H]3c3cn(C)nn3)c2)Cc2ccccc2O1 (racemic) [Example 14] | 1000 to 10000 |  | 1000 to 10000
C[C@H]1Cc2ccc(C(F)(F)F)cc2S(=O)(=O)N(Cc2cccc(-n3ncc(C(=O)O)c3[C@@H]3C[C@H]3c3cn(C)nn3)c2)C1 (racemic) [Example 16, 1-(3-((4-methyl-1,1-dioxido-8-(trifluoromethyl)-4,5-dihydro-benzo[f][1,2]thiazepin-2(3H)-yl)methyl)phenyl)-5-((trans)-2-(1-methyl-1H-1,2,3-triazol-4-yl)cyclopropyl)-1H-pyrazole-4-carboxylic acid] | 10 to 100 | 100 to 1000 | 
C[C@H]1Cc2ccc(Br)cc2S(=O)(=O)N(Cc2cccc(-n3ncc(C(=O)O)c3[C@@H]3C[C@H]3c3cn(C)nn3)c2)C1 (racemic) [Example 17, 1-(3-((8-bromo-4-methyl-1,1-dioxido-4,5-dihydrobenzo[f][1,2]thiazepin-2(3H)-yl)methyl)phenyl)-5-((trans)-2-(1-methyl-1H-1,2,3-triazol-4-yl)cyclopropyl)-1H-pyrazole-4-carboxylic acid] | 10 to 100 | 100 to 1000 | 

Continued, in another order:

EC50 [2] [nM] | SMILES | EC50 [1, 3] [nM] | EC50 ([1]; BEAS-2B, 48 h) [nM]
10 to 100 | C[C@@H]1Cc2cc(C(F)(F)F)ccc2S(=O)(=O)N(Cc2cccc(-n3ncc(C(=O)O)c3[C@@H]3C[C@H]3c3cn(C)nn3)c2)C1 (racemic) [Example 18, 1-(3-((4-methyl-1,1-dioxido-7-(trifluoromethyl)-4,5-dihydro-benzo[f][1,2]thiazepin-2(3H)-yl)methyl)phenyl)-5-((trans)-2-(1-methyl-1H-1,2,3-triazol-4-yl)cyclopropyl)-1H-pyrazole-4-carboxylic acid] | 10 to 100 | 
1000 to 10000 | C[C@H]1Cc2cc(C(F)(F)F)ccc2S(=O)(=O)N(Cc2cccc(-n3ncc(C(=O)O)c3[C@@H]3C[C@H]3c3cn(C)nn3)c2)C1 (racemic) [Example 19, 1-(3-((4-methyl-1,1-dioxido-7-(trifluoromethyl)-4,5-dihydro-benzo[f][1,2]thiazepin-2(3H)-yl)methyl)phenyl)-5-((trans)-2-(1-methyl-1H-1,2,3-triazol-4-yl)cyclopropyl)-1H-pyrazole-4-carboxylic acid] | 1000 to 10000 | 
10 to 100 | Cn1cc([C@@H]2C[C@H]2c2c(C(=O)O)cnn2-c2cccc(Cn3ccnc3CC3CCCCCC3)c2)nn1 (racemic) [Example 23] | 100 to 1000 | 
100 to 1000 | Cn1cc([C@@H]2C[C@H]2c2c(C(=O)O)cnn2-c2cccc(Cn3ccnc3CN3CCCCC3)c2)nn1 (racemic) [Example 24] | 1000 to 10000 | 
10 to 100 | CCCCCCN(Cc1cccc(-n2ncc(C(=O)O)c2[C@@H]2C[C@H]2c2cn(C)nn2)c1)S(=O)(=O)c1cccc(-c2ccccc2)c1 (racemic) [Example 34, 1-(3-((N-hexyl-[1,1′-biphenyl]-3-ylsulfonamido)methyl)phenyl)-5-((trans)-2-(1-methyl-1H-1,2,3-triazol-4-yl)cyclopropyl)-1H-pyrazole-4-carboxylic acid] | 10 to 100 | 
